Measurements published in patent publication EP0713704A1, “2-Amino-1,3-thiazines as nitric oxide synthase inhibitors” (HOECHST AKTIENGESELLSCHAFT, priority 1994, dated 1996).
Structures can show the parent of a compound that is named as a salt.

What was measured:
NO-Synthase (iNOS) = target: T1, NO-Synthase (iNOS) (Mus musculus, UniProt P29477); experiment: NO measurement by oxyhaemoglobin on macrophages (inhibition of NO release, LPS/γIFN-stimulated); format: cell-based, Maus; conditions: Mäusemakrophagen RAW 264.7, stimulated with LPS + γIFN for 4 h, 120 min incubation with test substance; read-out: IC₅₀-Wert
T1 construct: wird die Neusynthese des NO-produzierenden Enzyms NO-Synthase (iNOS) induziert; endogenous in cells; host or cells: RAW 264.7 mouse macrophages stimulated with LPS and γ-interferon
Method: Die Hemmung der NO-Freisetzung durch die Verbindungen der allgemeinen Formel I kann auch durch NO-Messung mittels Oxyhämoglobin auf Makrophagen wie folgt bestimmt werden:
Die subkonfluenten Zellen werden mit dem Zellschaber abgekratzt, in Medium aufgenommen, die Zellzahl bestimmt (Zählung in Trypanblaulösung 0,2 %) und in 24-Napfplatten (1 x 10⁶ Zellen/ml, 1 ml/Napf) ausgesät.
Dazu wird das Kulturmedium von den Zellen abgesaugt und 1 ml/Napf (24-Napfplatte) Inkubationsmedium (MEM ohne Phenolrot (Biochrom F0385)), konditioniert mit 4mM Glutamin, 3,5 g Glukose/l, 3,7 g NaHCO₃/l, 110 mg Natriumpyruvat/l, 50 U/50 µg/ml Pen/Strep und 5 % FKS, aufgegeben. Pro ml Inkubationsmedium werden 1 µl LPS und 1 µl γIFN pipettiert.
Daraus ergeben sich folgende Konzentrationen der Stimulatoren: 140 ng LPS/ml + 5 U γIFN/ml [formula] Während der Stimulation über 4 Stunden wird die Neusynthese des NO-produzierenden Enzyms NO-Synthase (iNOS) induziert. Nach diesem Inkubationszeitraum wird das Inkubationsmedium abgesaugt und jeder Napf zweimal mit frischem Inkubationsmedium gespült. […] Als Kontrolle wird das konditionierte Versuchsmedium nur mit dem Lösungsmittel der Testsubstanz versetzt.
Nach dem Abpipettieren des Versuchsmediums wird die Cytotoxizität der Testsubstanz geprüft (Zellviabilität).

[1] = target: induzierbaren NO-Synthase (Homo sapiens, UniProt P35228); experiment: NO synthase activity assay: quantification of coproduct 3H-L-citrulline formed from 3H-L-arginine; format: biochemical; conditions: read-out: Restaktivität
From the text: Die erfindungsgemäße Hemmung der NO-Freisetzung durch die Verbindungen der allgemeinen Formel I kann durch einen Aktivitätsassay bestimmt werden, der auf Arbeiten von Bredt und Snyder sowie Schmidt et al. basiert (s. D.S. Bredt und S.S. Snyder, Isolation of nitric oxide synthase, a calmodulin-requiring enzyme, Proc. Natl. Acad. Sci. USA 87 (1990), 682; H.H.H.W.Schmidt et al., Purification of a soluble isoform of guanylyl cyclase-activating factor synthase, Proc. Natl. Acad. Sci. USA 88 (1991), 365). Hierbei wird für gereinigte NO-Synthase (NOS) das bei der NO-Bildung anfallende Coprodukt L-Citrullin quantitativ erfaßt. Dies geschieht durch den Einsatz von ³H-radiomarkiertem L-Arginin als Substrat der Enzymreaktion, das zu ³H-L-Citrullin und NO umgesetzt wird. Nach Beendigung der Enzyminkubation wird […]; die durch Flüssigkeitsszintillationsmessung ermittelte ³H-Aktivität entspricht dann der Menge an L-Citrullin.
• a) Die Substanz ist analog Beispiel 2 erhältlich. Weiße Kristalle vom Schmp. 153 °C. • b) Die pharmakologische Wirkung wurde in dem oben beschriebenen Aktivitätsassy ermittelt, bei dem das von der NO-Synthase als Coprodukt gebildete Citrullin bestimmt wird. Es wurden folgende Hemmungen der induzierbaren NO-Synthase beobachtet: […]

Row | IC50 (NO-Synthase (iNOS)) [nM] | activity at 1 µM ([1]; Konzentration: 1 µM) [%] | activity at 10 µM ([1]; Konzentration: 10 µM) [%] | SMILES
1 | 1300 |  |  | NC1=NCCCS1 [Beispiel 1, 2-Amino-5,6-dihydro-4H-1,3-thiazin-Hydrobromid]
2 |  | 15 | 12 | CC1(C)CCSC(N)=N1 [Beispiel 3, 2-Amino-4,4-dimethyl-5,6-dihydro-1,3-thiazin-Hydrochlorid]
